Earlier results on two compounds are cited in US20230111210A1, “COCRYSTAL ANTIOXIDANTS OF PROTOCATECHUIC ACID WITH L-THEANINE FOR THE TREATMENT OF OXIDATIVE STRESS AND INFLAMMATORY CONDITIONS” (priority 2020, published 2023).

The pKa is the negative logarithm of the acid dissociation constant.

Values after ≈ are worked out from the molar mass of the structure shown.

The subject of data set [1] is NMDA (N-methyl-D-Aspartate) receptors.
The subject of data set [2] is AMPA (α-amino-3-hydroxy-5-methyl-4-isoxazolepropionic acid) receptors.
Assay in data set [3]: not given
This is another data set of the same source.

The test system of the next data set is rats. To be noted: rat, in vivo.
Another data set deals with rabbits. Conditions: rabbit, in vivo.

Take `CCNC(=O)CC[C@H](N)C(=O)O` [L-theanine, N-ethyl-L-glutamine]: the “solubility in water (in words)” value is given as “soluble in water”. Besides, the “affinity for NMDA receptors” value in data set [1] is listed as “micromolar affinities”. For the same compound, the “affinity for AMPA receptors” value in data set [2] is “micromolar affinities”. Also, in data set [3], the pKa is 2.35. Moreover, in the data set with Kainate receptors, the “affinity for Kainate receptors” value is listed as “micromolar affinities”. Besides, the LD50 entry in the data set with rats is “greater than 5000 mg/kg”.

Regarding `O=C(O)c1ccc(O)c(O)c1` [Protocatechuic acid, 3,4-dihydroxybenzoic acid], the solubility in water was 18.2 mg/mL (≈ 118 mM). For the same compound, the pKa in data set [3] is on record as 4.26. Moreover, in the data set on rabbits, the “oral LD50” value is “greater than 3000 mg/kg”.
